Measurements from the OPERA property sets (Mansouri et al. 2018).

Settings: not given
Compound `CC(=O)C(C)CO` (stereo not drawn) has a log10 vapour pressure (mmHg) of -0.646.
Work on `O=C1c2ccccc2C(=O)c2cc(Br)ccc21` yielded a melting point of 206 °C.
Compound `CC(S)C(=O)NCC(=O)O` (stereo not drawn) has a melting point of 96 °C.
Work on `CCCCCCCC[Si](Cl)(Cl)Cl` yielded a boiling point of 232 °C.
Compound `O=C(O)c1cc(F)c(F)cc1F` has a melting point of 100 °C.
`CC(C)OC(=O)C(C(=O)OC(C)C)=C1SCCS1` showed a melting point of 54 °C.
For `CC(C)COC(=O)c1ccccc1C(=O)OCC(C)C`, the boiling point was 296 °C, the log10 Koc (L/kg) was 3.14 and the ready biodegradability was “not readily biodegradable”.
Work on `ClC1=C(Cl)C2(Cl)C3C4OC4C(Cl)C3C1(Cl)C2(Cl)Cl` (stereo not drawn) yielded a log10 Henry constant (atm·m³/mol) of -4.68, a log10 Koc (L/kg) of 4.02 and a log10 vapour pressure (mmHg) of -4.71. The melting point was 160 °C.
Work on `FC(Cl)=C(Cl)Cl` yielded a boiling point of 71 °C and a melting point of -109 °C.
Work on `COC(=O)c1ccc(Cl)c([N+](=O)[O-])c1` yielded a melting point of 83 °C.
With `CC(C)(N)Cc1ccccc1Cl` the ready biodegradability was “not readily biodegradable”.
In the case of `CN(C)C(=O)Nc1cccc(F)c1`, the log10 Koc (L/kg) is reported as 1.73.
In the case of `CC(=O)CCCC(=O)O`, the boiling point is reported as 274 °C and the melting point is reported as 13.5 °C.
Work on `CCB(CC)CC` yielded a boiling point of 95 °C and a melting point of -93 °C.
With `CC(C)C#N` the boiling point was 104 °C, the log10 Koa was 2.87 and the log10 vapour pressure (mmHg) was 1.51. The melting point was -71.5 °C and the ready biodegradability was “readily biodegradable”.
In the case of `C=C(C)C(=O)OCC(CC)CCCC` (stereo not drawn), the ready biodegradability is reported as “readily biodegradable”.
With `CC1=C(/C=C/C(C)=C/C=C/C(C)=C/C=C/C=C(C)/C=C/C=C(C)/C=C/C2=C(C)CCCC2(C)C)C(C)(C)CCC1` the melting point was 183 °C.
`CN1CCN(C(=O)OC2c3nccnc3C(=O)N2c2ccc(Cl)cn2)CC1` (stereo not drawn) showed a melting point of 178 °C.
Work on `CCOC(=O)CN(C(=O)CCl)c1c(CC)cccc1CC` yielded a log10 Koc (L/kg) of 2 and a melting point of 49.5 °C.
`CCCCCCCCC=O` showed a boiling point of 191 °C, a log10 Henry constant (atm·m³/mol) of -3.13 and a log10 vapour pressure (mmHg) of -0.432.
With `CCCCCCCCCCCCCCCC(=O)OC[C@H](COP(=O)([O-])OCC[N+](C)(C)C)OC(=O)CCCCCCCCCCCCCCC` the melting point was 234 °C.
`[O-][n+]1onc2ccccc21` gave a melting point of 70 °C.
For `COCC(O)COC`, the boiling point was 169 °C.
`CC1(C)[C@@H](O)CC[C@]2(C)[C@H]3C(=O)C=C4[C@@H]5C[C@@](C)(C(=O)O)CC[C@]5(C)CC[C@@]4(C)[C@]3(C)CC[C@@H]12` gave a melting point of 296 °C.
`CCCCCCCCCCCCCCCc1ccccc1` gave a boiling point of 373 °C, a log10 vapour pressure (mmHg) of -5.14 and a melting point of 22 °C.
Work on `COc1ccc(C(=NCc2ccccc2)c2ccc(OC)cc2)cc1` yielded a melting point of 90 °C.
Work on `Clc1ccc(Oc2ccccc2Cl)c(Cl)c1` yielded a log10 vapour pressure (mmHg) of -3.73.
Compound `CCN(CC)c1ccc(N)cc1` has a boiling point of 261 °C.
Compound `OCc1cccc(CO)c1` has a melting point of 57 °C.
`ClC=C(Cl)Cl` showed a boiling point of 87.2 °C, a log10 Henry constant (atm·m³/mol) of -2.01 and a log10 Koa of 2.99. For the same compound, the log10 Koc (L/kg) was 2, the log10 vapour pressure (mmHg) was 1.84 and the melting point was -84.7 °C. For the same compound, the ready biodegradability was “not readily biodegradable”.
With `c1ccc2ncncc2c1` the boiling point was 241 °C and the melting point was 48 °C.
`CNc1ccc([N+](=O)[O-])cc1` gave a melting point of 152 °C.
Compound `C=CC(=O)OCC(C)C` has a boiling point of 132 °C, a log10 vapour pressure (mmHg) of 0.907 and a melting point of -61 °C.
`C[C@]12CCC(=O)C=C1CC[C@@H]1[C@@H]2CC[C@]2(C)C(=O)CC[C@@H]12` gave a melting point of 158 °C.
In the case of `CCCCCCCCC=CCCCCCCCC(=O)OCC(O)C1OCC(O)C1O` (stereo not drawn), the ready biodegradability is reported as “readily biodegradable”.
In the case of `N#C[S-].[K+]`, the melting point is reported as 173 °C.
Work on `C=C(CC(=O)OCC)C(=O)OCC` yielded a boiling point of 228 °C and a melting point of 58.5 °C.
For `CN.Cl`, the melting point was 228 °C.
With `C=CCOCCC` the boiling point was 91 °C and the log10 vapour pressure (mmHg) was 1.78.
In the case of `CCCC(=O)Nc1c(I)cc(I)c(CC(CC)C(=O)[O-])c1I.[Na+]` (stereo not drawn), the melting point is reported as 209 °C.
Compound `NS(=O)(=O)c1ccc(SCCCCO)s1` has a melting point of 48.5 °C.
With `CC12CCC(CC1=O)C2(C)C` (stereo not drawn) the boiling point was 206 °C, the log10 vapour pressure (mmHg) was -0.665 and the melting point was 179 °C. The ready biodegradability was “readily biodegradable”.
With `c1ccc2cc3c(cc2c1)-c1cccc2cccc-3c12` the boiling point was 480 °C, the log10 Henry constant (atm·m³/mol) was -6.23 and the log10 Koc (L/kg) was 4.34. The log10 biodegradation half-life (days) was 2.55, the log10 vapour pressure (mmHg) was -9.02 and the melting point was 217 °C. For the same compound, the ready biodegradability was “not readily biodegradable”.
For `CCCCCC[C@H](C)I`, the boiling point was 210 °C and the log10 vapour pressure (mmHg) was 0.136.
With `C[C@@H](O)CC(=O)O` the melting point was 47.5 °C.
Work on `CCCCOC(=O)CCC(=O)O` yielded a melting point of 8.6 °C.
With `C1=CSCC1` the boiling point was 112 °C.
`CN(C)C(=O)Nc1cccc(C(F)(F)F)c1` showed a log10 Koc (L/kg) of 1.9, a log10 vapour pressure (mmHg) of -6.03 and a melting point of 164 °C.
Work on `CCCC(O)(CC)CCC` yielded a boiling point of 182 °C.
With `Clc1cc(Cl)nc(Cl)n1` the boiling point was 212 °C and the melting point was 22.5 °C.
`CC(=O)CCCC(C)C` gave a boiling point of 167 °C.
Work on `C=CF` yielded a boiling point of -72 °C, a log10 vapour pressure (mmHg) of 4.3 and a melting point of -160 °C.
Work on `Nc1ccn([C@@H]2O[C@H](CO)[C@@H](O)[C@@H]2O)c(=O)n1` yielded a melting point of 212 °C.
Compound `CC=CC#N` has a boiling point of 120 °C and a log10 vapour pressure (mmHg) of 1.5.
For `CCCCCCCCCCO`, the boiling point was 231 °C, the log10 Henry constant (atm·m³/mol) was -4.49 and the log10 Koc (L/kg) was 2.59. For the same compound, the log10 vapour pressure (mmHg) was -2.07, the melting point was 6.9 °C and the ready biodegradability was “readily biodegradable”.
`CCOC(=O)C(Br)C(=O)OCC` gave a melting point of -54 °C.
`Fc1ccc(F)cc1` showed a boiling point of 89 °C, a log10 vapour pressure (mmHg) of 1.81 and a melting point of -13 °C.
For `O=S(O)c1ccccc1`, the melting point was 84 °C and the ready biodegradability was “not readily biodegradable”.
With `CCc1ccc(C)cc1` the boiling point was 162 °C, the log10 biodegradation half-life (days) was 0.602 and the log10 vapour pressure (mmHg) was 0.477. It also gave a melting point of -62.3 °C.
In the case of `Cc1cc(C)n(-c2ccccc2)n1`, the boiling point is reported as 273 °C.
`O=C(N/N=C/c1ccccc1O)c1ccncc1` showed a melting point of 232 °C.
Compound `CCCCC(O)(CCCC)CCCC` has a melting point of 20 °C.
For `O=C=Nc1ccccc1Cl`, the boiling point was 200 °C and the melting point was 30.5 °C.
`ClC/C=C/CCl` gave a boiling point of 155 °C, a log10 vapour pressure (mmHg) of 0.574 and a melting point of -14.2 °C.
In the case of `O=NN1CCCC1`, the boiling point is reported as 214 °C and the log10 vapour pressure (mmHg) is reported as -1.22.
For `C=C1CC(=O)O1`, the boiling point was 126 °C, the log10 vapour pressure (mmHg) was 1.03 and the melting point was -6.5 °C. For the same compound, the ready biodegradability was “readily biodegradable”.
With `O=P(OC(CCl)CCl)(OC(CCl)CCl)OC(CCl)CCl` the melting point was 27 °C and the ready biodegradability was “not readily biodegradable”.
`Cc1cc(=O)c2ccccc2[nH]1` showed a melting point of 234 °C.
In the case of `CCCCN(CCCC)SN(C)C(=O)Oc1cccc2c1OC(C)(C)C2`, the log10 vapour pressure (mmHg) is reported as -6.51.
Compound `CN(C)c1ccc(O)cc1` has a melting point of 77 °C.
With `CCCCOC(=O)CCC(C)=O` the boiling point was 238 °C.
In the case of `Oc1ccccc1S`, the boiling point is reported as 217 °C and the melting point is reported as 5.5 °C.
In the case of `Clc1ccc(-c2cc(Cl)c(Cl)cc2Cl)cc1Cl`, the log10 Koa is reported as 9.82 and the log10 vapour pressure (mmHg) is reported as -5.05.
Compound `O=C(c1ccc(F)cc1)C1CCN(CCn2c(=O)[nH]c3ccccc3c2=O)CC1` has a melting point of 231 °C.
In the case of `CCC(=O)O[C@H]1CC[C@@]2(C)C(=CC[C@H]3[C@@H]4CC[C@H](OC(=O)CC)[C@@]4(C)CC[C@@H]32)C1`, the melting point is reported as 113 °C.
`CN(C)C` gave a boiling point of 2.87 °C, a log10 Henry constant (atm·m³/mol) of -3.98 and a log10 vapour pressure (mmHg) of 3.21. For the same compound, the ready biodegradability was “readily biodegradable”.
`CCOC(=O)C(Cl)(Cl)C(C)=O` gave a boiling point of 206 °C.
With `C=CC1=CCCCC1` the boiling point was 145 °C.
In the case of `O=C(CC(=O)c1ccccc1)c1ccccc1`, the melting point is reported as 70.5 °C and the ready biodegradability is reported as “readily biodegradable”.
With `CCCCCCCCCCCI` the log10 vapour pressure (mmHg) was -2.35.
For `C=CCCl`, the boiling point was 45.1 °C, the log10 vapour pressure (mmHg) was 2.57 and the melting point was -134 °C. For the same compound, the ready biodegradability was “readily biodegradable”.
For `CC(C)Oc1ccc(C(=O)NS(=O)(=O)c2ccc(N)cc2)cc1`, the melting point was 172 °C.
Compound `COP(=O)(OC)O/C(=C\Cl)c1ccc(Cl)cc1Cl` has a log10 vapour pressure (mmHg) of -5.01 and a melting point of 69.5 °C.
For `CCCCC(=O)O`, the boiling point was 186 °C, the log10 Henry constant (atm·m³/mol) was -6.33 and the log10 vapour pressure (mmHg) was -0.708. For the same compound, the melting point was -34 °C and the ready biodegradability was “readily biodegradable”.
Work on `COc1ccccc1NC(=O)CC(C)=O` yielded a melting point of 86 °C.
For `C=CC(OC(C)=O)OC(C)=O`, the boiling point was 180 °C, the melting point was -37.6 °C and the ready biodegradability was “readily biodegradable”.
For `Brc1ccc2ncccc2c1`, the boiling point was 281 °C and the melting point was 24 °C.
Work on `Cc1cccc(N(C)C(=S)Oc2ccc3ccccc3c2)c1` yielded a melting point of 111 °C.
Work on `CN(C)c1ccc(C#N)cc1` yielded a boiling point of 318 °C and a melting point of 74 °C.
For `CC1(CCl)CO1` (stereo not drawn), the boiling point was 122 °C and the ready biodegradability was “not readily biodegradable”.
`CCc1cn([C@H]2C[C@H](O)[C@@H](CO)O2)c(=O)[nH]c1=O` gave a melting point of 152 °C.
Compound `CCOC(=O)c1cc2ccccc2[nH]1` has a melting point of 124 °C.
`O=C(O)c1cccc(Cl)c1[N+](=O)[O-]` showed a melting point of 238 °C.
In the case of `Nc1cccc2c(O)nnc(O)c12`, the melting point is reported as 330 °C.
In the case of `CCC/C=C/CCCCCC`, the boiling point is reported as 193 °C and the melting point is reported as -80.3 °C.
`CNC.O=C(O)COc1ccc(Cl)cc1Cl` showed a log10 vapour pressure (mmHg) of -9 and a melting point of 86 °C.
For `COc1c(O)cc(Cl)c(Cl)c1Cl`, the log10 Koc (L/kg) was 2.8, the log10 vapour pressure (mmHg) was -3.05 and the ready biodegradability was “not readily biodegradable”.
`c1ccc(CN(CC2=NCCN2)c2ccccc2)cc1` gave a melting point of 120 °C.

Same assay, conditions: fish
`CC(C)OC(=O)C(C(=O)OC(C)C)=C1SCCS1` showed a log10 BCF of 1.57.
`ClC1=C(Cl)C2(Cl)C3C4OC4C(Cl)C3C1(Cl)C2(Cl)Cl` (stereo not drawn) gave a log10 biotransformation half-life (days) of 2.2.
Work on `Clc1ccc(-c2cccc(Cl)c2Cl)cc1Cl` yielded a log10 biotransformation half-life (days) of 2.47.
Compound `ClC=C(Cl)Cl` has a log10 BCF of 1.2 and a log10 biotransformation half-life (days) of -0.41.
Compound `c1ccc2cc3c(cc2c1)-c1cccc2cccc-3c12` has a log10 biotransformation half-life (days) of -0.06.
In the case of `Clc1ccc(Cl)c(-c2c(Cl)cc(Cl)c(Cl)c2Cl)c1`, the log10 biotransformation half-life (days) is reported as 2.23.
For `O=P(OC(CCl)CCl)(OC(CCl)CCl)OC(CCl)CCl`, the log10 BCF was 1.08 and the log10 biotransformation half-life (days) was -0.52.
In the case of `Clc1ccc(-c2cc(Cl)c(Cl)cc2Cl)cc1Cl`, the log10 biotransformation half-life (days) is reported as 2.19.
With `C=CCCl` the log10 BCF was 0.7 and the log10 biotransformation half-life (days) was -0.93.
Work on `COc1c(O)cc(Cl)c(Cl)c1Cl` yielded a log10 BCF of 2.41 and a log10 biotransformation half-life (days) of 0.11.
